# Assays:
# [1] = molecular target: T1, phosphodiesterase 4A (Homo sapiens, UniProt P27815); experiment: Recombinant human PDE4A assay; type: biochemical; settings: for inhibition at 0.1 µM: 10^−7 M, read-out: Enzyme Inhibitory Activity (%, 10^−7 M)
# T1 construct: made in house; host or cells: E. coli
# [2] = system: cAMP-specific phosphodiesterase (PDE IV); experiment: Inhibition of the PDE IV enzyme derived from a dog trachea; type: biochemical; settings: test compound 10^−6 M; PDE IV from dog tracheal smooth muscle; substrate cAMP 1 μM
# Method in brief: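 Enzyme purified from dog tracheal smooth muscle; [3H]cAMP substrate at 1 μM final in 50 mM BES pH 7.2, 1 mM MgCl2, 0.1 mg/ml soybean trypsin inhibitor, 30° C for 10–30 min, 1.7% DMSO final. After HCl stop, product converted to adenosine by 5′-nucleotidase, separated on DEAE-Sephadex and scintillation-counted.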
# T1 sequence (P27815 224-886 limits assumed): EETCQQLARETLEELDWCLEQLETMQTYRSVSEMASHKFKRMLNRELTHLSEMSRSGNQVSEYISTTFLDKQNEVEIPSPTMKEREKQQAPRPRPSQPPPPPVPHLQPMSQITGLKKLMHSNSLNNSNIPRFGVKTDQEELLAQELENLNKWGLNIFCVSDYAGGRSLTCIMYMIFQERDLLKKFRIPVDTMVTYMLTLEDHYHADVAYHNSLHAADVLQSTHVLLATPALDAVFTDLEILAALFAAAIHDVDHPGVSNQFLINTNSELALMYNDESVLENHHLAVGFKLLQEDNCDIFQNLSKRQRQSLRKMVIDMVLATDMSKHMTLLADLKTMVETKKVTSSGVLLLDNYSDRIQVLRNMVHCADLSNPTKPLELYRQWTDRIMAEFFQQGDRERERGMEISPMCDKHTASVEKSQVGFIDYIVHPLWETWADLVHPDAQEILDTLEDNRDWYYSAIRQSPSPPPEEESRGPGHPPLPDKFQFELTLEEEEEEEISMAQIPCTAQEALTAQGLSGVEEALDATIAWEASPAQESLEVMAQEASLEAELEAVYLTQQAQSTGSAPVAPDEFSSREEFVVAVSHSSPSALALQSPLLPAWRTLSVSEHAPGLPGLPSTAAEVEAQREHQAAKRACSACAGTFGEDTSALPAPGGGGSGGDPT
SMILES,inhibition at 0.1 µM [1] [%],melting point [°C],"Enzyme Inhibitory Activity (%, 10^−7 M) [1] [%]","Enzyme Inhibitory Activity (%, 10^−6 M) [2] [%]"
"CCOC(=O)c1coc2c(OC)ccc(C(=O)Cc3c(Cl)cncc3Cl)c12 [Compound 159, Ethyl 4-[2-(3,5-dichloro-4-pyridyl)-1-oxoethyl]-7-methoxybenzofuran-3-carboxylate]",99,,,
"COc1ccc(C(=O)Cc2c(Cl)cncc2Cl)c2c(CC(=O)Nc3cccnc3)coc12 [Compound 156, 4-[2-(3,5-Dichloro-4-pyridyl)-1-oxoethyl]-7-methoxy-3-[(3-pyridyl)aminocarbonylmethyl]benzofuran]",90,252 to 255,,
"COc1ccc(C(=O)Cc2c(Cl)cccc2Cl)c2cc(C(=O)Nc3cccc(F)c3)oc12 [Compound 161, 4-[2-(2,6-Dichlorophenyl)-1-oxoethyl]-2-[(3-fluorophenyl)aminocarbonyl]-7-methoxybenzofuran]",87,251 to 252,,
"COc1ccc(C(=O)Cc2c(Cl)cncc2Cl)c2c(CC(=O)OCc3ccccc3[N+](=O)[O-])coc12 [Compound 154, 4-[2-(3,5-Dichloro-4-Pyridyl)-1-oxoethyl]-7-methoxy-3-[(2-nitrobenzyl)oxycarbonylmethyl]benzofuran]",92,200 to 201,,
"COc1ccc(/C=C/c2c(Cl)cncc2Cl)c2cc(-c3ccccn3)oc12 [Compound 84, (E)-4-[2-(3,5-Dichloro-4-pyridyl)ethenyl]-7-methoxy-2-(2-pyridyl)benzofuran]",98,157 to 158,,
"COc1ccc(C(=O)Nc2c(Cl)cccc2Cl)c2cc(C(=O)c3ccccc3)oc12 [Compound 168, 2-Benzoyl-4-[(2,6-dichiorophenyl)aminocarbonyl]-7-methoxybenzofuran]",,,96,
"COc1ccc(/C=C/c2c(Cl)cncc2Cl)c2c1OCCCO2 [Compound 191, (E)-6-[2-(3,5-dichloro-4-pyridyl)ethenyl]-3,4-dihydro-9-methoxy-2H-1,5-benzodioxepin]",84,118 to 120,,
"COc1ccc(C(=O)Cc2c(Cl)c[n+]([O-])cc2Cl)c2c1OCCCCO2 [Compound 195, 7-[2-(3,5-dichloro-N-oxo-4-pyridyl)-1-oxoethyl]-10-methoxy-2,3,4,5-tetrahydro-1,6-benzodioxocin]",,,93,
"COc1ccc(C(=O)Nc2c(Cl)cncc2Cl)c2c1OC(C)(C)O2 [Compound 199, 7-(3,5-dichloro-4-pyridylaminocarbonyl)-4-methoxy-2,2-dimethyl-3,4-benzodioxole]",,,57,
"COc1ccc(C(=O)Cc2ccncc2)c2c1OC1(CCCCC1)C2.Cl [Compound 102, 7-Methoxy-4-[1-oxo-2-(4-pyridyl)ethyl]-spiro[2,3-dihydrobenzofuran-2,1′-cyclohexane].hydrochloride]",,,95,
"COc1ccc(C(=O)Cc2c(Cl)cncc2Cl)c2c(CC(=O)OCCc3ccccc3)coc12 [Compound 153, 4-[2-(3,5-Dichloro-4-pyridyl)-1-oxoethyl]-7-methoxy-3-phenethyloxycarbonylmethylbenzofuran]",94,183 to 184,,
"COc1ccc(C=Cc2c(Cl)cncc2Cl)c2c1OC1(CCCC1)O2 [Compound 138, 7-[2-(3,5-Dichloro-4-pyridyl)ethenyl]-4-methoxy-spiro[1,3-benzodioxole-2,1′-cyclopentane]]",100,100 to 101,,
"COc1ccc(C(=O)Cc2ccncc2)c2cc(C(=O)Nc3ccccc3)oc12.Cl [Compound 165, 7-Methoxy-4-[1-oxo-2-(4-pyridyl)ethyl]-2-(phenylaminocarbonyl)benzofuran.hydrochloride]",,,64,
"COc1ccc(C(=O)Cc2c(Cl)cncc2Cl)c2c(CC(=O)NCc3ccccn3)coc12.Cl.Cl [Compound 157, 4-[2-(3,5-Dichloro-4-pyridyl)-1-oxoethyl]-7-methoxy-3-[(2-pyridylmethyl)aminocarbonylmethyl]benzofuran.2 hydrochloride]",,,89,
"COc1ccc(C(=O)Nc2c(Cl)cncc2Cl)c2c1OC1(CCCC1)O2 [Compound 134, 7-(3,5-Dichloro-4-pyridylaminocarbonyl)-4-methoxy-spiro[1,3-benzodioxole-2,1′-cyclopentane]]",100,168 to 170,,
"COc1ccc(C(=O)Cc2c(Cl)cncc2Cl)c2cc(-c3ccncc3)oc12.Cl.Cl [Compound 114, 4-[2-(3,5-Dichloro-4-pyridyl)-1-oxoethyl]-7-methoxy-2-(4-pyridyl)benzofuran.2 hydrochloride]",,,100,
"COc1ccc(C(=O)Cc2c(Cl)cncc2Cl)c2c(CC(=O)NCc3ccccc3)coc12 [Compound 155, 3-Benzylaminocarbonylmethyl-4-[2-(3,5-dichloro-4-pyridyl)-1-oxoethyl]-7-methoxybenzofuran]",96,244 to 246,,

SMILES,inhibition at 0.1 µM [1] [%],melting point [°C],"Enzyme Inhibitory Activity (%, 10^−7 M) [1] [%]","Enzyme Inhibitory Activity (%, 10^−6 M) [2] [%]"
"COc1ccc(C(=O)Nc2c(Cl)cncc2Cl)c2c1OC1(C=C2)CCCC1 [Compound 123, 5-(3,5-Dichloro-4-pyridylaminocarbonyl)-8-methoxy-spiro[benzopyran-2,1′-cyclopentane]]",87,129 to 131,,
"COc1ccc(C(=O)Cc2c(Cl)cccc2Cl)c2cc(C(=O)c3ccccc3)oc12 [Compound 163, 2-Benzoyl-4-[2-(2,6-dichlorophenyl)-1-oxoethyl]-7-methoxybenzofuran]",96,223 to 224,,
"COc1ccc(C(=O)Nc2c(Cl)cncc2Cl)c2cc(-c3ccccn3)oc12 [Compound 40, 4-[(3,5-Dichloro-4-pyridyl)aminocarbonyl]-7-methoxy-2-(2-pyridyl)benzofuran]",,263 to 264,,89
"COc1ccc(C(=O)Cc2c(Cl)cncc2Cl)c2c1OC1(CCCC1)O2 [Compound 140, 7-[2-(3,5-Dichloro-4-pyridyl)-1-oxoethyl]-4-methoxy-spiro[1,3-benzodioxole-2,1′-cyclopentane]]",100,,,
"COc1ccc(C(=O)Nc2ccccc2)c2c1OCC2CC(=O)O (racemic) [Compound 11, (±)-3-Carboxymethyl-7-methoxy-4-phenylaminocarbonyl-2,3-dihydrobenzofuran]",,248 to 251,,6
COc1ccc(C(=O)Nc2c(Cl)cncc2Cl)c2cc(C(=O)c3ccccc3)oc12 [Compound 35],,,100,
"COc1ccc(CSc2ccncc2)c2c1OC(C)(C)C2 [Compound 48, 7-Methoxy-2,2-dimethyl-4-(4-pyridylthiomethyl)-2,3-dihydrobenzofuran]",,109 to 113,,41
"COc1ccc(C(Sc2ccncc2)c2ccccc2)c2c1OCC2C (racemic) [Compound 60B, (±)-7-Methoxy-3-methyl-4-[1-phenyl-1-(4-pyridylthio)-methyl]-2,3-dihydrobenzofuran]",,84 to 85,,4
"COc1ccc(C(=O)Cc2c(Cl)cccc2Cl)c2cc(C(=O)c3ccccn3)oc12 [Compound 160, 4-[2-(2,6-Dichlorophenyl)-1-oxoethyl]-7-methoxy-2-(2-pyridylcarbonyl)benzofuran]",91,228 to 229,,
"COc1ccc(C(=O)Cc2c(Cl)cncc2Cl)c2c1OC1(CCCCCC1)O2 [Compound 177, 7-[2-(3,5-Dichloro-4-pyridyl)-1-oxoethyl)-4-methoxy-spiro[1,3-benzodioxole-2,1′-cycloheptane]]",93,,,
"COc1ccc(C(=O)Nc2c(Cl)cncc2Cl)c2c1OCC2CC(=O)NCc1ccc(Cl)cc1 (racemic) [Compound 30, (±)-3-[(4-Chlorobenzyl)aminocarbonyl]methyl-4-[(3,5-dichloro-4-pyridyl)aminocarbonyl]-7-methoxy-2,3-dihydro-benzofuran]",,283 to 286,,85
"COc1ccc(CNC(=O)CC2COc3c(OC)ccc(C(=O)Nc4c(Cl)cncc4Cl)c32)cc1 (racemic) [Compound 28, (±)-4-[(3,5-Dichloro-4-pyridyl)aminocarbonyl]-7-methoxy-3-[(4-methoxybenzyl)aminocarbonyl]methyl-2,3-dihydrobenzofuran]",,269 to 271,,83
"CCC1(CC)Cc2c(C(=O)Cc3c(Cl)cncc3Cl)ccc(OC)c2O1 [Compound 97, 4-[2-(3,5-Dichloro-4-pyridyl)-1-oxoethyl]-2,2-diethyl-7-methoxy-2,3-dihydrobenzofuran]",,164 to 166,,92
"COc1ccc(C(=O)Nc2ccccc2)c2c1OCC2CC(=O)OCc1ccccc1 (racemic) [Compound 15, (±)-3-Benzyloxycarbonylmethyl-7-methoxy-4-phenylaminocarbonyl-2,3-dihydrobenzofuran]",,179 to 180,,75
"COc1ccc(C(=O)Nc2c(Cl)cncc2Cl)c2c1OCC2CC(=O)N1CCN(c2ccccc2)CC1 (racemic) [Compound 21, (±)-4-[(3,5-Dichloro-4-pyridyl)aminocarbonyl]-7-methoxy-3-[(4-phenyl-1-piperazinyl)carbonyl]methyl-2,3-dihydrobenzofuran]",,224,,84
"COc1ccc(C(=O)Cc2ccncc2)c2c1OC1(CCCC1)O2.Cl [Compound 141, 4-Methoxy-7-[1-oxo-2-(4-pyridyl)ethyl]-spiro[1,3-benzodioxole-2,1′-cyclopentane].hydrochloride]",,,76,
